Values after ≈ are worked out from the molar mass of the structure shown.
Tests used:
VEGF = VEGF levels in ECV304 endothelial cells (ELISA); format: cell-based, Human; details: 5ug/ml, 4 hours
Description: Human endothelial cells (ECV304) were plated at the density of 8-10 x10^5 cells per 2 ml in a six well plate. After an overnight incubation of cells at 37°C, cyclopentenone derivatives at a concentration of 5ug/ml was added to the wells. The untreated wells served as controls. The plates were incubated for 4 hours at 37°C. The medium was collected from all the wells (control and treated) and spun down at 2000 r.p.m to remove the cellular material. The supernatant was collected and used for ELISA (Quantikine human VEGF, R&D Systems). The assay employs the quantitative sandwich enzyme immunoassay technique. A monoclonal antibody specific for VEGF has been pre-coated onto a microplate. Standards and samples were pipetted into the wells and VEGF present was bound by the immobilized antibody. After washing away the unbound substances, an enzyme-linked polyclonal antibody specific for VEGF was added to the wells. Following a wash to remove any unbound antibody-enzyme reagent, a substrate solution was added to the wells and color developed in proportion to the amount of VEGF bound in the initial step. The optical density of each well was determined within 30 minutes using a microplate reader set to 450nm and reference wavelength at 540nm. The VEGF levels were inhibited by the addition of cyclopentenone derivatives in vitro.

MIAPaCa2 = assay: three day MTT cytotoxicity assay; format: cell-based, human; details: MIAPaCa2 (Pancreas), 72 hours
Description: (§1) A number of the cyclopentenone derivatives were tested for cytotoxicity against 9 human tumor cell lines. Briefly, a three day MTT cytotoxicity assay was performed, which is based on the principle of uptake of MTT (3-(4,5-dimethylthiazol-2-yl)-2,5-diphenyl tetrazolium bromide), a tetrazolium salt, by the metabolically active cells where it is metabolized by active mitochondria into a blue colored formazan product that is read spectrophotometrically. MTT was dissolved in phosphate buffered saline with a pH of 7.4 to obtain an MTT concentration of 5mg/ml; the resulting mixture was filtered through a 0.22 micron filter to sterilize and remove a small amount of insoluble residue. For each type of tumor cell, 10000 to 15000 cells were seeded in a 96-well culture plate and incubated with the individual cyclopentenone derivatives in a CO2 incubator for a total of 72 hours. Control cells not treated with the cyclopentenone derivatives were similarly incubated. The assay was terminated by adding 100 ug (20 ul) of MTT to each well, then incubating for additional one hour, and finally adding 50 ul of 10% SDS-0.01N HCl to each well to lyse the cells and dissolve formazan. After incubating for one hour, the plate was read spectrophotometrically at 540 nm and the percentage of cytotoxicity calculated using the following formula: Cytotoxicity percentage = 100 × [1-(X/R1)], [formula] where X = (absorbance of treated sample at 540 nm) - (absorbance of blank at 540 nm) R1 = absorbance of control sample at 540 nm.
(§2) The ED50 Values of the cytotoxicity defined as the concentration at which 50 % of the cells are killed in vitro was calculated for each cell line treated with each of the cyclopentenone derivatives.
(§3) The cell lines are PTC (all colon), MOLT-4 (leukemia), SW620 […], DU145 (prostate), KB (oral squamous cell), L132 (lung), MIAPaCa2 (Pancreas), Hep2, (larynx), PA-1 (ovary), HuTu80 (duodenum), ECV 304 (endothelial), and 293 (kidney).

293 = assay: three day MTT cytotoxicity assay; format: cell-based, human; details: 293 (kidney), 72 hours
Description: as §1, §2, §3

PTC = assay: three day MTT cytotoxicity assay; format: cell-based, human; details: PTC (colon), 72 hours
Description: as §1, §2, §3

L132 = assay: three day MTT cytotoxicity assay; format: cell-based, human; details: L132 (lung), 72 hours
Description: as §1, §2, §3

PA-1 = assay: three day MTT cytotoxicity assay; format: cell-based, human; details: PA-1 (ovary), 72 hours
Description: as §1, §2, §3

HuTu80 = assay: three day MTT cytotoxicity assay; format: cell-based, human; details: HuTu80 (duodenum), 72 hours
Description: as §1, §2, §3

DU145 = assay: three day MTT cytotoxicity assay; format: cell-based, human; details: DU145 (prostate), 72 hours
Description: as §1, §2, §3

Hep2 = assay: three day MTT cytotoxicity assay; format: cell-based, human; details: Hep2 (larynx), 72 hours
Description: as §1, §2, §3

ECV 304 = assay: three day MTT cytotoxicity assay; format: cell-based, human; details: ECV 304 (endothelial), 72 hours
Description: as §1, §2, §3

KB = assay: three day MTT cytotoxicity assay; format: cell-based, human; details: KB (oral squamous cell), 72 hours
Description: as §1, §2, §3

MOLT-4 = assay: three day MTT cytotoxicity assay; format: cell-based, human; details: MOLT-4 (leukemia), 72 hours
Description: as §1, §2, §3

SW620 = assay: three day MTT cytotoxicity assay; format: cell-based, human; details: 72 hours
Description: as §1, §2, §3

Caspase-3 = Caspase-3 induction in KB cells (colorimetric substrate DEVD-pNA); format: cell-based, Human; details: 5ug/ml
Description: Human squamous cell carcinoma (KB) were plated in a 25 cm^2 flask. When cultures achieved confluence, the cyclopentenone derivative of structure 20 was added to the cells. The final concentration of derivative of the structure 20 in the flask was 5ug/ml. The untreated wells served as controls. The cells were incubated with the drug for 2 different time points of 6 and 16 hours at 37°C. The cells were collected by centrifugation at 2000 r.p.m. for 10 minutes. The supernatant was gently removed and discarded while Lysis Buffer was added to the cell pellet (25ul of lysis buffer per […]). The cell lysate was incubated on ice for 10 minutes and centrifuged at 10,000-x g for 1 minute. The supernatant was transferred to a new tube and kept on ice. 50ul of the cell lysate was added in a 96 well plate. To this was added 2x Reaction Buffer. Prior to using reaction buffer, 10ul of fresh DTT stock per 1 ml of 2x Reaction Buffer was added. To each well 5ul of Caspase-3 colorimetric substrate (DEVD-pNA) was added. The plate was incubated for 1-2 hours at […]. and read at 405nm.
The level of caspase enzymatic activity in the cell lysate is directly proportional to the absorbance at 405nm. […]

tubulin = tubulin polymerization in vitro (absorbance at 340 nm); format: biochemical; details: tubulin 1mg/ml, 37°C, pH 6.9; read-out: IC50 values (uM) for inhibition of Tubulin Polymerization
Description: The cyclopentenone derivatives were checked for their effects on tubulin polymerization in vitro. Briefly, the tubulin assembly reaction was performed at 37°C in buffer containing 80 mM PIPES, 1mM EGTA, 1.0 mM GTP and 1mM MgCl2 (pH 6.9) at a tubulin concentration of 1mg/ml in the presence or absence of the cyclopentenone derivatives. The final concentration of the cyclopentenone derivatives in the reaction mixture varied from 1-5uM. The derivatives were dissolved in 0.1% DMSO. The control experiments were carried out with 0.1% DMSO. The tubulin polymerization was followed by measurement of the absorbance of the solution at 340 nm every 30 seconds. […] Thus the cyclopentenone derivatives mediated their observed anticancer activities by tubulin depolymerization.

PTC tumor xenografts = assay: In vivo anti-tumor activity on PTC tumor xenografts; design: species or system Balb/c athymic mice; details: intravenously 0.5 mg/100 µL once a day for 14 days, day 23, compared to controls
Description: PTC tumor xenografts were grown in Balb/c athymic mice by subcutaneous inoculation of a single cell suspension of PTC cells (15 X 10^6 cells/100 µL). The tumor bearing animals were divided into 2 groups of three animals each including one group comprising untreated control animals. Treatment with compound of formula no. 49 was initiated when the average tumor volumes, as measured using a vernier caliper, were […]. Compound of formula no. 49 was administered intravenously to the assigned group of tumor bearing animals at a dose of 0.5 mg/100 µL once a day and the treatment was continued for a period of 14 days.
The antitumor activity of the compound was monitored by measuring tumor volumes every fourth day using the formula W*W*L*0.4 (W = smaller diameter, L = larger diameter). The percentage inhibition of tumor growth was calculated using the formula (1- tumor volume-treated / tumor volume-control) * 100. […] Compound of formula no. […] The percentage inhibition of tumor growth caused compound of formula no. 49 as compared to controls on day 23 was 45.8%.

Structure (SMILES)	Percent Reduction in VEGF (VEGF)	ED50 (ug/ml) MiaPaca (MIAPaCa2)	ED50 (ug/ml) 293 293	ED50 (ug/ml) PTC (PTC)	ED50 (ug/ml) L132 (L132)	ED50 (ug/ml) PA1 (PA-1)	ED50 (ug/ml) HuTu80 (HuTu80)	ED50 (ug/ml) DU145 (DU145)	ED50 (ug/ml) Hep2 (Hep2)	ED50 (ug/ml) ECV 304 (ECV 304)	ED50 (ug/ml) KB (KB)	ED50 (ug/ml) MOLT4 (MOLT-4)	ED50 (ug/ml) SW620 (SW620; SW620 (colon))	Percent Induction of Caspase-3 6 hours (Caspase-3)	Percent Induction of Caspase-3 16 hours (Caspase-3)	IC50 (tubulin)	ED50 (ug/ml) SW620 (SW620; SW620 (ovary))	percentage inhibition of tumor growth (PTC tumor xenografts)
COc1ccc(C2=C(c3cc(OC)c(OC)c(OC)c3)C(=O)CC2O)cc1O (stereo not drawn) [Compound 39]	21.9 ± 1.5%	>100 µg/mL	>100 µg/mL	78 ± 4.0 µg/mL (≈ 202 µM)	<1 µg/mL	<1 µg/mL	1.5 ± 0.1 µg/mL (≈ 3.88 µM)	8 ± 1.5 µg/mL (≈ 20.7 µM)	<1 µg/mL	>100 µg/mL	<1 µg/mL	62.5 ± 5.0 µg/mL (≈ 162 µM)	<1 µg/mL	12.8 ± 0.2%	17.0 ± 1.5%	1.4 ± 0.6 µM		
COc1ccc(C2=C(c3cc(OC)c(OC)c(OC)c3)C(=O)C(O)C2)cc1 (stereo not drawn) [Compound 48]	23.7 ± 2.2%	79 ± 9.5 µg/mL (≈ 213 µM)		6.0 ± 1.5 µg/mL (≈ 16.2 µM)	9.0 ± 3.3 µg/mL (≈ 24.3 µM)	<1.0 µg/mL		>100 µg/mL	<1.0 µg/mL	>100 µg/mL	8 ± 2.1 µg/mL (≈ 21.6 µM)	<1.0 µg/mL		18.4 ± 1.1%	22.7 ± 1.5%	2.1 ± 0.1 µM	<1.0 µg/mL	
COc1ccc(C2=C(c3cc(OC)c(OC)c(OC)c3)C(=NO)C(O)C2)cc1 (stereo not drawn) [Compound 49]	38.6 ± 1.9%	24 ± 3.5 µg/mL (≈ 62.3 µM)		<1.0 µg/mL	< 1.0 µg/mL	<1.0 µg/mL		>100 µg/mL	<1.0 µg/mL	>100 µg/mL	<1.0 µg/mL	<1.0 µg/mL		26.7 ± 2.8%	31.9 ± 3.2%	2.3 ± 0.5 µM	<1.0 µg/mL	45.8%
COc1ccc(C2=C(c3cc(OC)c(OC)c(OC)c3)/C(=N\O)C(O)C2)cc1F (stereo not drawn) [Compound 66]	12.9 ± 2.9%	94 ± 10.0 µg/mL (≈ 233 µM)	>100 µg/mL	27 ± 3.5 µg/mL (≈ 66.9 µM)	<1 µg/mL		9 ± 3.1 µg/mL (≈ 22.3 µM)	10 ± 5.1 µg/mL (≈ 24.8 µM)	<1 µg/mL	43 ± 4.5 µg/mL (≈ 107 µM)	<1 µg/mL		<1 µg/mL	17.0 ± 1.0%	22.1 ± 0.6%	2 ± 0.6 µM		
COc1ccc(C2=C(c3cc(OC)c(OC)c(OC)c3)C(=O)C(O)C2)cc1O (stereo not drawn) [Compound 74]	16.9 ± 0.5%													21.8 ± 2.8%	28.4 ± 2.1%	1.8 ± 0.5 µM		

— patent EP1581471B9, “CYCLOPENTENONE DERIVATIVES FOR CANCER THERAPY” (Dabur Research Foundation, priority 2002, dated 2004)
